Test results as given in patent US20090239939A1, “Combinations for introducing nucleic acids into cells” (priority 1999, published 2009).

Experiments:
[1] = tested on: human erythrocytes; assay: Erythrocyte lysis assay; format: cell-based; settings: 37° C., 1 h, citrate pH 5 versus HBS, FIG. 5
Experimental: The assay serves the examination of the ability of peptides to lyse natural membranes in a pH-dependent manner.
The erythrocytes used in this assay were obtained as follows: 10 ml of fresh blood were taken from volunteers and diluted immediately into 10 ml of Alsever's solution (Whaley 1985; Plank et al., 1996). Aliquots of 3 ml each were washed 3 times with the corresponding buffer (40 ml each of citrate or HBS; after addition of buffer, shaking, centrifugation at 2500×g and discarding of the supernatant). The concentration of the erythrocytes was determined with an “extinction coefficient” of 2.394×10^−8 ml/cells at 541 nm. For deriving the extinction coefficient, the cell count in an aliquot was determined using a Neubauer chamber followed by measuring the absorbance of this solution at 541 nm upon addition of 1 μl 1% Triton X-100.
Aliquots of INF7 and copolymer-coupled INF7 (P3INF7), respectively, were provided in column 1 of a 96-well plate in 150 μl 10 mM sodium citrate pH 5/150 mM NaCl and in HBS buffer, respectively (usually corresponding to […] peptide). […] Then, the plates were centrifuged at 2500×g, 150 μl each of the supernatant was transferred into a flat bottom 96-well plate and released hemoglobin was determined at 410 nm using an ELISA plate reader. […] 0% lysis was determined from untreated samples in column 12.

[2] = tested on: complement system; assay: Complement activation assay (CH50)

GLFEAIEGFIENGWEGMIDGWYGC [INF7] was tested, and the erythrocyte lysis activity [1] was “strong pH-dependent activity”, the “complement activation when incorporated in a polylysine-DNA complex” value ([2]; FIG. 4B) was “this complement activation disappears” and the “complement activation (CH50 as percentage of CH50max)” value ([2]; substance itself incubated with human serum, FIG. 4) was “weak activator of complement”.
